What was measured:
pigweed = assay: Test D preemergence; type: in vivo, Amaranthus retroflexus; conditions: for Plant response rating, Pigweed: Preemergence, scale 0 to 100
From the text: (§1) Seeds of plant species selected from bluegrass (annual bluegrass, Poa annua), blackgrass (Alopecurus myosuroides), canarygrass (littleseed canarygrass, Phalaris minor), chickweed (common chickweed, Stellaria media), galium (catchweed bedstraw, Galium aparine), bromegrass, downy (downy bromegrass, Bromus tectorum), field poppy (Papaver rhoeas), field violet (Viola arvensis), foxtail, green (green foxtail, Setaria viridis), deadnettle (henbit deadnettle, Lamium amplexicaule), ryegrass, Italian (Italian ryegrass, Lolium multiflorum), kochia (Kochia scoparia), lambsquarters (Chenopodium album), oilseed rape (Brassica napus), pigweed (redroot pigweed, Amaranthus retroflexus), chamomile (scentless chamomile, Matricaria inodora), speedwell (bird's-eye speedwell, Veronica persica), barley, spring (spring barley, Hordeum vulgare), wheat, spring (spring wheat, Triticum aestivum), buckwheat, wild (wild buckwheat, Polygonum convolvulus), mustard, wild (wild mustard, Sinapis arvensis), oat, wild (wild oat, Avena fatua), radish, wild (wild radish, Raphanus raphanistrum), windgrass (Apera spica-venti), Russian thistle (Salsola kali), barley, winter (winter barley, Hordeum vulgare), and wheat, winter (winter wheat, Triticum aestivum) were planted into a silt loam soil and treated preemergence with test chemicals formulated in a non-phytotoxic solvent mixture which included a surfactant.
(§2) At the same time, these species were planted in pots containing Redi-Earth® planting medium (Scotts Company, 14111 Scottslawn Road, Marysville, Ohio 43041) comprising spaghnum peat moss, vermiculite, wetting agent and starter nutrients and treated with postemergence applications of the test chemicals formulated in the same manner. Plants ranged in height from 2 to 18 cm (1- to 4-leaf stage). Treated plants and controls were maintained in a controlled growth environment for 14 to 21 days after which time all species were compared to controls and visually evaluated. Plant response ratings, summarized in Table D, are based on a scale of 0 to 100 where 0 is no effect and 100 is complete control. A dash (-) response means no test result.

mustard, wild [1] = assay: Test D preemergence; type: in vivo, Sinapis arvensis; conditions: for Plant response rating, Mustard, Wild: Preemergence, scale 0 to 100
From the text: as §1, §2

ryegrass, Italian = assay: Test D postemergence; type: in vivo, Lolium multiflorum; conditions: scale 0 to 100
From the text: as §1, §2

wheat, spring = assay: Test D postemergence; type: in vivo, Triticum aestivum; conditions: scale 0 to 100
From the text: as §1, §2

wheat, winter = assay: Test D postemergence; type: in vivo, Triticum aestivum; conditions: scale 0 to 100
From the text: as §1, §2

radish, wild = assay: Test D preemergence; type: in vivo, Raphanus raphanistrum; conditions: for Plant response rating, Radish, Wild: Preemergence, scale 0 to 100
From the text: as §1, §2

foxtail, green [2] = assay: Test D preemergence; type: in vivo, Setaria viridis; conditions: for Plant response rating, Foxtail, Green: Preemergence, scale 0 to 100
From the text: as §1, §2

galium = assay: Test D postemergence; type: in vivo, Galium aparine; conditions: scale 0 to 100
From the text: as §1, §2

chickweed = assay: Test D postemergence; type: in vivo, Stellaria media; conditions: scale 0 to 100
From the text: as §1, §2

foxtail, green [3] = assay: Test D postemergence; type: in vivo, Setaria viridis; conditions: scale 0 to 100
From the text: as §1, §2

field violet = assay: Test D postemergence; type: in vivo, Viola arvensis; conditions: scale 0 to 100
From the text: as §1, §2

blackgrass = assay: Test D preemergence; type: in vivo, Alopecurus myosuroides; conditions: for Plant response rating, Blackgrass: Preemergence, scale 0 to 100
From the text: as §1, §2

canarygrass = assay: Test D preemergence; type: in vivo, Phalaris minor; conditions: for Plant response rating, Canarygrass: Preemergence, scale 0 to 100
From the text: as §1, §2

windgrass = assay: Test D postemergence; type: in vivo, Apera spica-venti; conditions: scale 0 to 100
From the text: as §1, §2

deadnettle = assay: Test D preemergence; type: in vivo, Lamium amplexicaule; conditions: for Plant response rating, Deadnettle: Preemergence, scale 0 to 100
From the text: as §1, §2

oat, wild = assay: Test D preemergence; type: in vivo, Avena fatua; conditions: for Plant response rating, Oat, Wild: Preemergence, scale 0 to 100
From the text: as §1, §2

barley, spring = assay: Test D preemergence; type: in vivo, Hordeum vulgare; conditions: for Plant response rating, Barley, Spring: Preemergence, scale 0 to 100
From the text: as §1, §2

barley, winter = assay: Test D preemergence; type: in vivo, Hordeum vulgare; conditions: for Plant response rating, Barley, Winter: Preemergence, scale 0 to 100
From the text: as §1, §2

mustard, wild [4] = assay: Test D postemergence; type: in vivo, Sinapis arvensis; conditions: scale 0 to 100
From the text: as §1, §2

[5] = 16 g ai/ha, taken as preemergence

Cc1cc(C(=O)NCC(F)(F)F)nn1Cc1ccnc(C(F)(F)F)c1 [Compound 74]
75: Plant response rating, Radish, Wild (radish, wild; 62 g ai/ha)
5: Ryegrass, Italian plant response rating (ryegrass, Italian; Postemergence, 31 g ai/ha) | Ryegrass, Italian plant response rating (ryegrass, Italian; postemergence, 62 g ai/ha) | Wheat, Spring plant response rating (wheat, spring; Postemergence, 125 g ai/ha) | Plant response rating, Foxtail, Green (foxtail, green [2]; 31 g ai/ha) | Plant response rating, Canarygrass (canarygrass; 125 g ai/ha) | Windgrass plant response rating (windgrass; Postemergence, 125 g ai/ha) | Plant response rating, Deadnettle (deadnettle; 31 g ai/ha) | Plant response rating, Barley, Spring (barley, spring; 125 g ai/ha)
50: Field Violet plant response rating (field violet; Postemergence, 125 g ai/ha)
15: Plant response rating (scale 0 to 100), Pigweed (pigweed; [5]) | Plant response rating (scale 0 to 100), Mustard, Wild (mustard, wild [1]; [5]) | Plant response rating, Radish, Wild (radish, wild; 31 g ai/ha) | Plant response rating, Chickweed (chickweed; Postemergence, 16 g ai/ha) | Foxtail, Green plant response rating (foxtail, green [3]; postemergence, 62 g ai/ha) | Plant response rating, Blackgrass (blackgrass; 125 g ai/ha)
30: Plant response rating, Pigweed (pigweed; 31 g ai/ha) | Plant response rating, Foxtail, Green (foxtail, green [2]; 125 g ai/ha) | Field Violet plant response rating (field violet; Postemergence, 31 g ai/ha) | Plant response rating, Oat, Wild (oat, wild; 125 g ai/ha) | Mustard, Wild plant response rating (mustard, wild [4]; Postemergence, 31 g ai/ha) | Mustard, Wild plant response rating (mustard, wild [4]; postemergence, 62 g ai/ha)
0: Plant response rating, Ryegrass, Italian (ryegrass, Italian; Postemergence, 16 g ai/ha) | Plant response rating, Wheat, Spring (wheat, spring; Postemergence, 16 g ai/ha) | Wheat, Spring plant response rating (wheat, spring; Postemergence, 31 g ai/ha) | Wheat, Spring plant response rating (wheat, spring; postemergence, 62 g ai/ha) | Plant response rating, Wheat, Winter (wheat, winter; Postemergence, 16 g ai/ha) | Wheat, Winter plant response rating (wheat, winter; Postemergence, 31 g ai/ha) | Wheat, Winter plant response rating (wheat, winter; Postemergence, 125 g ai/ha) | Wheat, Winter plant response rating (wheat, winter; postemergence, 62 g ai/ha) | Plant response rating (scale 0 to 100), Radish, Wild (radish, wild; [5]) | Plant response rating (scale 0 to 100), Foxtail, Green (foxtail, green [2]; [5]) | Plant response rating, Foxtail, Green (foxtail, green [3]; Postemergence, 16 g ai/ha) | Plant response rating (scale 0 to 100), Blackgrass (blackgrass; [5]) | Plant response rating, Blackgrass (blackgrass; 31 g ai/ha) | Plant response rating (scale 0 to 100), Canarygrass (canarygrass; [5]) | Plant response rating, Canarygrass (canarygrass; 31 g ai/ha) | Plant response rating, Canarygrass (canarygrass; 62 g ai/ha) | Plant response rating, Windgrass (windgrass; Postemergence, 16 g ai/ha) | Windgrass plant response rating (windgrass; Postemergence, 31 g ai/ha) | Windgrass plant response rating (windgrass; postemergence, 62 g ai/ha) | Plant response rating (scale 0 to 100), Deadnettle (deadnettle; [5]) | Plant response rating (scale 0 to 100), Barley, Spring (barley, spring; 16 g ai/ha, taken as preemergence, 0 = no effect, 100 = complete control) | Plant response rating, Barley, Spring (barley, spring; 31 g ai/ha) | Plant response rating, Barley, Spring (barley, spring; 62 g ai/ha) | Plant response rating (scale 0 to 100), Barley, Winter (barley, winter; [5]) | Plant response rating, Barley, Winter (barley, winter; 31 g ai/ha) | Plant response rating, Barley, Winter (barley, winter; 62 g ai/ha) | Plant response rating, Barley, Winter (barley, winter; 125 g ai/ha)
35: Chickweed plant response rating (chickweed; Postemergence, 31 g ai/ha)
40: Galium plant response rating (galium; postemergence, 62 g ai/ha) | Foxtail, Green plant response rating (foxtail, green [3]; Postemergence, 125 g ai/ha)
60: Field Violet plant response rating (field violet; postemergence, 62 g ai/ha)
65: Chickweed plant response rating (chickweed; Postemergence, 125 g ai/ha)
55: Mustard, Wild plant response rating (mustard, wild [4]; Postemergence, 125 g ai/ha)
80: Plant response rating, Mustard, Wild (mustard, wild [1]; 125 g ai/ha)
100: Plant response rating, Pigweed (pigweed; 125 g ai/ha) | Plant response rating, Radish, Wild (radish, wild; 125 g ai/ha)
20: Galium plant response rating (galium; Postemergence, 31 g ai/ha) | Plant response rating, Deadnettle (deadnettle; 125 g ai/ha) | Plant response rating (scale 0 to 100), Oat, Wild (oat, wild; [5]) | Plant response rating, Mustard, Wild (mustard, wild [4]; Postemergence, 16 g ai/ha)
25: Plant response rating, Mustard, Wild (mustard, wild [1]; 31 g ai/ha) | Plant response rating, Mustard, Wild (mustard, wild [1]; 62 g ai/ha) | Chickweed plant response rating (chickweed; postemergence, 62 g ai/ha) | Plant response rating, Field Violet (field violet; Postemergence, 16 g ai/ha)
70: Plant response rating, Pigweed (pigweed; 62 g ai/ha) | Galium plant response rating (galium; Postemergence, 125 g ai/ha)
10: Ryegrass, Italian plant response rating (ryegrass, Italian; Postemergence, 125 g ai/ha) | Plant response rating, Foxtail, Green (foxtail, green [2]; 62 g ai/ha) | Plant response rating, Galium (galium; Postemergence, 16 g ai/ha) | Foxtail, Green plant response rating (foxtail, green [3]; Postemergence, 31 g ai/ha) | Plant response rating, Blackgrass (blackgrass; 62 g ai/ha) | Plant response rating, Deadnettle (deadnettle; 62 g ai/ha) | Plant response rating, Oat, Wild (oat, wild; 31 g ai/ha) | Plant response rating, Oat, Wild (oat, wild; 62 g ai/ha)

Source: patent publication US20150105252A1, “SUBSTITUTED PYRAZOLES AS HERBICIDES” (E I DU PONT DE NEMOURS AND COMPANY, priority 2013, published 2015)
